Assays:
Assay type in all cases: biochemical
[1] = target: adenosine A2B receptor (Homo sapiens (Human), UniProt P29275); experiment: Adenosine receptor activity assay (Table 1), A2B activity; conditions: for IC50: read-out: Ave A2B cAMP IC50
[2] = target: adenosine A3 receptor (Homo sapiens (Human), UniProt P0DMS8); experiment: Adenosine receptor activity assay (Table 1), A3 cAMP
Procedure: (§1) Table 1. Compounds (e.g., Adenosine Receptor modulators) and activity assay results. The legend is as follows: A=<10 nM; B=10-50 nM; C=50-100 nM; D=100-500; and E=>500 nM. The ratio corresponds to the A2A activity to the A2B activity; or A2A/A2B.

[3] = target: adenosine A1 receptor (Homo sapiens (Human), UniProt P30542); experiment: Adenosine receptor activity assay (Table 1), A1 cAMP
Chain of adenosine A1 receptor (P30542 whole entry): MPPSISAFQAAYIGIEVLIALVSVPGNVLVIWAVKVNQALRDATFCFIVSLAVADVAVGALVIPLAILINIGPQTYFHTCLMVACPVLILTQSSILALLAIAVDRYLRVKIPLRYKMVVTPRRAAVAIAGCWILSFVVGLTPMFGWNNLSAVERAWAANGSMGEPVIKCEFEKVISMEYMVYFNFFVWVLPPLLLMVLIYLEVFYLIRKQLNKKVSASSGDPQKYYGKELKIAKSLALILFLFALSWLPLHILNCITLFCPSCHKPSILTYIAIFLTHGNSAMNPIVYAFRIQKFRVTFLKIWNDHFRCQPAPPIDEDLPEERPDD
Procedure: as §1

[4] = target: adenosine A2A receptor (Homo sapiens (Human), UniProt P29274); experiment: Adenosine receptor activity assay (Table 1), A2A activity; conditions: read-out: Ave A2A cAMP IC50
Chain of adenosine A2A receptor (P29274 whole entry): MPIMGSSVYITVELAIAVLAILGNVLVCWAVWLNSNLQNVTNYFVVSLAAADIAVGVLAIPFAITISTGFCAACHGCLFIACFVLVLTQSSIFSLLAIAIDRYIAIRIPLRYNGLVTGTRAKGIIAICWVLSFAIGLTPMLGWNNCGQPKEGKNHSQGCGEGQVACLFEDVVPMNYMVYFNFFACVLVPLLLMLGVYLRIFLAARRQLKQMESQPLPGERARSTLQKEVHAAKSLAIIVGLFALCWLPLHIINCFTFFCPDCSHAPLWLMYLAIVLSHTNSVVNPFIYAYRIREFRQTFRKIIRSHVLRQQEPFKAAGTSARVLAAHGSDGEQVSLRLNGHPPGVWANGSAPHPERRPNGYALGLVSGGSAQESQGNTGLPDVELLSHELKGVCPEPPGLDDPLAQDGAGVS

[5] = A2A activity to the A2B activity, A2A/A2B
[6] = A2A activity to A2B activity (A2A/A2B)

Chain of adenosine A3 receptor (P0DMS8 whole entry): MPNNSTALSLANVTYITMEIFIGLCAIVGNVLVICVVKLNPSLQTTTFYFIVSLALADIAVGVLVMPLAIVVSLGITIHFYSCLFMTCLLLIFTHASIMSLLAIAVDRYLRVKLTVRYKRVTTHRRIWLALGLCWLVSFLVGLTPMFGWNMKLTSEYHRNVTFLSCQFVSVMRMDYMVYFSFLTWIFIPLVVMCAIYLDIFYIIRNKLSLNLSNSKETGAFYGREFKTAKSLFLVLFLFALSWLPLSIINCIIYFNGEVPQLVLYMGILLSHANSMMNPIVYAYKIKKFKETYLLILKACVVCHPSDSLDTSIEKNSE
Chain of adenosine A2B receptor (P29275 whole entry): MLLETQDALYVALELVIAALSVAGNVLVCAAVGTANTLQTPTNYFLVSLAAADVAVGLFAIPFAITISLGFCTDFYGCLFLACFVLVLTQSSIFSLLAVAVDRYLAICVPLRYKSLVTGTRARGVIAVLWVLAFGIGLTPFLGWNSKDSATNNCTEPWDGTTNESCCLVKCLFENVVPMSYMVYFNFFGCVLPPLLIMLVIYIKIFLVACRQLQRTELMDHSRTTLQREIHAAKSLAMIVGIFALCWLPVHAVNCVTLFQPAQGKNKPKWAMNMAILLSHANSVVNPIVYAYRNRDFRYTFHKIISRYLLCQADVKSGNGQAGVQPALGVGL

Compound | Ratio [1, 5] | IC50 [1] | IC50 [2] | IC50 [3] | IC50 [4] | Ratio [1, 6]
Cc1cc2nc(N[C@@H](C)c3cncc(F)c3)nc(C(=O)N3CC(C(=O)NOC(C)(C)C)C3)c2s1 [Example Z592, (S)—N-(tert-Butoxy)-1-(2-((1-(5-fluoropyridin-3-yl)ethyl)amino)-6-methylthieno[3,2-d]pyrimidine-4-carbonyl)azetidine-3-carboxamide] | 4.67 | 0.01 to 0.05 µM | > 0.5 µM | > 0.5 µM | 0.05 to 0.1 µM | –
C[C@H](Nc1nc(C(=O)N2CC(CNC(=O)OC(C)(C)C)C2)c2sccc2n1)c1cncc(F)c1 [Example Z404, tert-Butyl (S)-((1-(2-((1-(5-fluoropyridin-3-yl)ethyl)amino)thieno[3,2-d]pyrimidine-4-carbonyl)azetidin-3-yl)methyl)carbamate] | 5.80 | < 0.01 µM | > 0.5 µM | > 0.5 µM | 0.01 to 0.05 µM | –
COC[C@@H](Nc1nc(C(=O)NCCc2ccc(O)cc2)c2sccc2n1)c1cccnc1 [Example Z403, (S)—N-(4-Hydroxyphenethyl)-2-((2-methoxy-1-(pyridin-3-yl)ethyl)amino)thieno[3,2-d]pyrimidine-4-carboxamide] | 42.24 | 0.01 to 0.05 µM | > 0.5 µM | > 0.5 µM | > 0.5 µM | –
Cc1cc2nc(N[C@@H](C)c3cncc(F)c3)nc(C(=O)N3CC[C@@H](N)C3)c2s1 [Example Z413, ((R)-3-Aminopyrrolidin-1-yl)(2-(((S)-1-(5-fluoropyridin-3-yl)ethyl)amino)-6-methylthieno[3,2-d]pyrimidin-4-yl)methanone] | 126.84 | 0.01 to 0.05 µM | > 0.5 µM | > 0.5 µM | > 0.5 µM | –
CNC1CN(C(=O)c2nc(N[C@@H](C)c3cncc(F)c3)nc3cc(C)sc23)C1 [Example Z418, (S)-(2-((1-(5-Fluoropyridin-3-yl)ethyl)amino)-6-methylthieno[3,2-d]pyrimidin-4-yl)(3-(methylamino)azetidin-1-yl)methanone] | 207.31 | 0.01 to 0.05 µM | > 0.5 µM | > 0.5 µM | > 0.5 µM | –
O=C(c1nc(NCc2cnccn2)nc2ccsc12)N1CC[C@H](O)C1 [Example Z156, (S)-(3-Hydroxypyrrolidin-1-yl)(2-((pyrazin-2-ylmethyl)amino)thieno[3,2-d]pyrimidin-4-yl)methanone] | – | > 0.5 µM | – | – | > 0.5 µM | 14.60
C[C@H](Nc1nc(C(=O)N2CCC[C@H]2C)c2sccc2n1)c1cccnc1 [Example Z37, ((R)-2-Methylpyrrolidin-1-yl)(2-(((S)-1-(pyridin-3-yl)ethyl)amino)thieno[3,2-d]pyrimidin-4-yl)methanone] | – | 0.1 to 0.5 µM | – | – | > 0.5 µM | 64.10
C[C@H](Nc1nc(C(=O)NC[C@H]2CCCN2C(=O)OC(C)(C)C)c2sccc2n1)c1ccccn1 [Example Z228, tert-Butyl (R)-2-((2-(((S)-1-(pyridin-2-yl)ethyl)amino)thieno[3,2-d]pyrimidine-4-carboxamido)methyl)pyrrolidine-1-carboxylate] | – | > 0.5 µM | – | – | > 0.5 µM | 2.80
CO[C@@H]1CCN(C(=O)c2nc(N[C@@H](C)c3cccnc3)nc3cc(C)sc23)C1 [Example Z351, ((R)-3-Methoxypyrrolidin-1-yl)(6-methyl-2-(((S)-1-(pyridin-3-yl)ethyl)amino)thieno[3,2-d]pyrimidin-4-yl)methanone] | – | < 0.01 µM | – | – | 0.05 to 0.1 µM | 10.17
O=C(c1nc(NCc2ccccc2)nc2ccsc12)N1CCCC1 [Example Z39, (2-(Benzylamino)thieno[3,2-d]pyrimidin-4-yl)(pyrrolidin-1-yl)methanone] | – | 0.1 to 0.5 µM | – | – | 0.1 to 0.5 µM | 1.22

Further lines, results first:

Ratio [1, 5] | IC50 [1] | IC50 [2] | IC50 [3] | IC50 [4] | Ratio [1, 6] | Compound
365.84 | 0.01 to 0.05 µM | > 0.5 µM | > 0.5 µM | > 0.5 µM | – | Cc1cc2nc(N[C@@H](C)c3cncc(F)c3)nc(C(=O)NCC[C@@H]3CCNC3)c2s1 [Example Z489, 2-(((S)-1-(5-Fluoropyridin-3-yl)ethyl)amino)-6-methyl-N-(2-((S)-pyrrolidin-3-yl)ethyl)thieno[3,2-d]pyrimidine-4-carboxamide]
0.72 | 0.01 to 0.05 µM | > 0.5 µM | > 0.5 µM | 0.01 to 0.05 µM | – | Cc1csc2c(C(=O)NCc3cccnc3)nc(N[C@@H](C)c3ccccn3)nc12 [Example Z458, (S)-7-Methyl-2-((1-(pyridin-2-yl)ethyl)amino)-N-(pyridin-3-ylmethyl)thieno[3,2-d]pyrimidine-4-carboxamide]
5.03 | 0.05 to 0.1 µM | 0.1 to 0.5 µM | 0.1 to 0.5 µM | 0.1 to 0.5 µM | – | C[C@H](Nc1nc(C(=O)NCCc2cccc(O)c2)c2sccc2n1)c1cccnc1 [Example Z427, (S)—N-(3-Hydroxyphenethyl)-2-((1-(pyridin-3-yl)ethyl)amino)thieno[3,2-d]pyrimidine-4-carboxamide]
– | 0.01 to 0.05 µM | 0.05 to 0.1 µM | – | – | – | CC(=O)Nc1ccc(CCNC(=O)c2nc(N[C@@H](C)c3cccnc3)nc3cc(C)sc23)cc1 [Example Z497, (S)—N-(4-Acetamidophenethyl)-6-methyl-2-((1-(pyridin-3-yl)ethyl)amino)thieno[3,2-d]pyrimidine-4-carboxamide]
244.67 | 0.01 to 0.05 µM | > 0.5 µM | > 0.5 µM | > 0.5 µM | – | Cc1cc2nc(N[C@@H](C)c3cncc(F)c3)nc(C(=O)NCCC3CN(C)C3)c2s1 [Example Z535, (S)-2-((1-(5-Fluoropyridin-3-yl)ethyl)amino)-6-methyl-N-(2-(1-methylazetidin-3-yl)ethyl)thieno[3,2-d]pyrimidine-4-carboxamide]
53.11 | 0.01 to 0.05 µM | > 0.5 µM | > 0.5 µM | > 0.5 µM | – | Cc1cc2nc(N[C@@H](C)c3cccnc3)nc(C(=O)N3CC(CO)C3)c2s1 [Example Z515, (S)-(3-(Hydroxymethyl)azetidin-1-yl)(6-methyl-2-((1-(pyridin-3-yl)ethyl)amino)thieno[3,2-d]pyrimidin-4-yl)methanone]
1.51 | 0.01 to 0.05 µM | > 0.5 µM | > 0.5 µM | 0.01 to 0.05 µM | – | C[C@H](Nc1nc(C(=O)N2CC(CC(=O)NC(C)(C)C)C2)c2sccc2n1)c1cncc(F)c1 [Example Z571, (S)—N-(tert-Butyl)-2-(1-(2-((1-(5-fluoropyridin-3-yl)ethyl)amino)thieno[3,2-d]pyrimidine-4-carbonyl)azetidin-3-yl)acetamide]
147.08 | < 0.01 µM | > 0.5 µM | > 0.5 µM | > 0.5 µM | – | CC(=O)Nc1ccc(CCNC(=O)c2nc(N[C@@H](C)c3cncc(F)c3)nc3cc(C)sc23)cc1 [Example Z488, (S)—N-(4-Acetamidophenethyl)-2-((1-(5-fluoropyridin-3-yl)ethyl)amino)-6-methylthieno[3,2-d]pyrimidine-4-carboxamide]
3.15 | 0.01 to 0.05 µM | 0.05 to 0.1 µM | > 0.5 µM | 0.01 to 0.05 µM | – | Cc1cc2nc(N[C@@H](C)c3ccccn3)nc(C(=O)NCc3ccccn3)c2s1 [Example Z461, (S)-6-Methyl-2-((1-(pyridin-2-yl)ethyl)amino)-N-(pyridin-2-ylmethyl)thieno[3,2-d]pyrimidine-4-carboxamide]
111.93 | 0.01 to 0.05 µM | > 0.5 µM | > 0.5 µM | > 0.5 µM | – | Cc1cc2nc(N[C@@H](C)c3cncc(F)c3)nc(C(=O)N3CC(N(C)C)C3)c2s1 [Example Z481, (S)-(3-(Dimethylamino)azetidin-1-yl)(2-((1-(5-fluoropyridin-3-yl)ethyl)amino)-6-methylthieno[3,2-d]pyrimidin-4-yl)methanone]
0.18 | 0.01 to 0.05 µM | 0.01 to 0.05 µM | 0.1 to 0.5 µM | < 0.01 µM | – | Cc1cc2nc(N[C@@H](C)c3cncc(F)c3)nc(C(=O)N3CC(NC(=O)C(C)(C)C)C3)c2s1 [Example Z513, (S)—N-(1-(2-((1-(5-Fluoropyridin-3-yl)ethyl)amino)-6-methylthieno[3,2-d]pyrimidine-4-carbonyl)azetidin-3-yl)pivalamide]
3.87 | < 0.01 µM | 0.1 to 0.5 µM | > 0.5 µM | 0.01 to 0.05 µM | – | COCC1CN(C(=O)c2nc(N[C@@H](C)c3ccccn3)nc3c(C)csc23)C1 [Example Z553, (S)-(3-(methoxymethyl)azetidin-1-yl)(7-methyl-2-((1-(pyridin-2-yl)ethyl)amino)thieno[3,2-d]pyrimidin-4-yl)methanone]
13.99 | > 0.5 µM | – | – | > 0.5 µM | – | Cc1cc2nc(N[C@@H](C)c3cccnc3)nc(C(=O)N3CC(CN)C3)c2s1 [Example Z499, (S)-(3-(Aminomethyl)azetidin-1-yl)(6-methyl-2-((1-(pyridin-3-yl)ethyl)amino)thieno[3,2-d]pyrimidin-4-yl)methanone]
1.23 | 0.05 to 0.1 µM | – | – | 0.05 to 0.1 µM | – | Cc1csc2c(C(=O)NCCc3cccc(O)c3)nc(N[C@@H](C)c3ccccn3)nc12 [Example Z447, (S)—N-(3-Hydroxyphenethyl)-7-methyl-2-((1-(pyridin-2-yl)ethyl)amino)thieno[3,2-d]pyrimidine-4-carboxamide]
